{"source": "patent US7737309B2", "about": "“Clathrate compound, method for controlling concentration of aqueous agricultural chemical active ingredient solution, and agricultural chemical formulation” (Nippon Soda Co., Ltd., priority 2004, dated 2010)", "key": {"striped flea beetle": {"system": "striped flea beetle", "experiment": "Test as a seed treatment agent used in combination with a synthetic pyrethroid agent (rapeseeds)", "type": "in vivo", "settings": "Treatment amount 500 g/100 kg of seeds", "source_text": "(§1) Immediately after that, the vinyl bag was closed, and the rapeseeds were coated with the chemical by vigorously shaking for 30 seconds. These seeds were spread over a tray and then air-dried at room temperature overnight to obtain rapeseeds coated with 500 g of acetamiprid per 100 kg of seeds.\nas §1, with “g of bifenthrin and 500 g of acetamiprid per” for “g of acetamiprid per”\nThe obtained seeds were seeded in a No. 2 pot containing alluvial soil and then cultivated in a greenhouse. […] 2 days after standing, the number of incidences of insect damage due to imagines of striped flea beetle of 3 plants in each experimental plot was counted."}, "[1]": {"experiment": "Measurement of saturated solubility", "type": "physicochemical", "settings": "for saturated solubility: after standing at 25° C. for 192 hours; for Concentration of acetamiprid: distilled water at 25° C.", "experimental": "After weighing a fixed amount of each of the Clathrate compounds 1 to 4 obtained in Examples 1 to 4 and an acetamiprid as a control in a measuring flask, distilled water at 25° C. was added to obtain an equal volume. After stoppering and up-and-down shaking for 5 times, the measuring flask was allowed to stand in an incubator at 25° C. After up-and-down shaking for 5 times followed by sampling with the passage of time, water at 25° C. was added to obtain an equal volume again, and sampling was carried out up to 192 hours. The concentration of acetamiprid in the sampled solution was measured by HPLC and then the saturated solubility was calculated."}, "[2]": {"settings": "cited from earlier work"}}, "note": "Counter-ions that a name gives are not always drawn. Like-named read-outs stand apart in the source and are kept apart here.", "data": [{"smiles": "Cc1c(COC(=O)[C@@H]2[C@H](/C=C(\\Cl)C(F)(F)F)C2(C)C)cccc1-c1ccccc1", "note": "(racemic) [Bifenthrin]", "values": [{"measurement": "Insecticidal ratio % after 15 days", "setting": "striped flea beetle", "result": 75.4, "unit": "%"}, {"measurement": "Number of incidences of insect damage/3 plants after 15 days", "setting": "striped flea beetle", "result": 98}]}, {"smiles": "C/C(=N\\C#N)N(C)Cc1ccc(Cl)nc1", "note": "[Acetamiprid, (E)-N1-[(6-chloro-3-pyridyl)methyl]-N2-cyano-N1-methylacetamidine, reference compound]", "values": [{"measurement": "saturated solubility", "setting": "[1]", "result": 3807, "unit": "ppm"}, {"measurement": "Concentration of acetamiprid", "setting": "[1]; 1 hour", "result": "2,822 ppm"}, {"measurement": "Concentration of acetamiprid", "setting": "[1]; 3 hours", "result": "3,273 ppm"}, {"measurement": "Concentration of acetamiprid", "setting": "[1]; 24 hours", "result": "3,734 ppm"}, {"measurement": "Concentration of acetamiprid", "setting": "[1]; 48 hours", "result": "3,776 ppm"}, {"measurement": "Concentration of acetamiprid", "setting": "[1]; 72 hours", "result": "3,752 ppm"}, {"measurement": "Concentration of acetamiprid", "setting": "[1]; 192 hours", "result": "3,807 ppm"}, {"measurement": "aqueous solubility", "setting": "[2]; 25° C.", "result": 4200, "unit": "ppm"}]}, {"smiles": "CC(=NC#N)N(C)Cc1ccc(Cl)nc1.CC(=NC#N)N(C)Cc1ccc(Cl)nc1.Oc1ccc(C(c2ccc(O)cc2)C(c2ccc(O)cc2)c2ccc(O)cc2)cc1", "note": "[Clathrate compound 1]", "values": [{"measurement": "saturated solubility", "setting": "[1]", "result": 232, "unit": "ppm"}, {"measurement": "Concentration of acetamiprid", "setting": "[1]; 1 hour", "result": 121, "unit": "ppm"}, {"measurement": "Concentration of acetamiprid", "setting": "[1]; 3 hours", "result": 134, "unit": "ppm"}, {"measurement": "Concentration of acetamiprid", "setting": "[1]; 24 hours", "result": 193, "unit": "ppm"}, {"measurement": "Concentration of acetamiprid", "setting": "[1]; 48 hours", "result": 210, "unit": "ppm"}, {"measurement": "Concentration of acetamiprid", "setting": "[1]; 72 hours", "result": 221, "unit": "ppm"}, {"measurement": "Concentration of acetamiprid", "setting": "[1]; 192 hours", "result": 232, "unit": "ppm"}]}, {"smiles": "CC(=NC#N)N(C)Cc1ccc(Cl)nc1.CO.Oc1ccc(C(c2ccc(O)cc2)C(c2ccc(O)cc2)c2ccc(O)cc2)cc1", "note": "[Clathrate compound 2]", "values": [{"measurement": "saturated solubility", "setting": "[1]", "result": 238, "unit": "ppm"}, {"measurement": "Concentration of acetamiprid", "setting": "[1]; 1 hour", "result": 72, "unit": "ppm"}, {"measurement": "Concentration of acetamiprid", "setting": "[1]; 3 hours", "result": 79, "unit": "ppm"}, {"measurement": "Concentration of acetamiprid", "setting": "[1]; 24 hours", "result": 161, "unit": "ppm"}, {"measurement": "Concentration of acetamiprid", "setting": "[1]; 48 hours", "result": 200, "unit": "ppm"}, {"measurement": "Concentration of acetamiprid", "setting": "[1]; 72 hours", "result": 217, "unit": "ppm"}, {"measurement": "Concentration of acetamiprid", "setting": "[1]; 192 hours", "result": 238, "unit": "ppm"}]}, {"smiles": "CC(=NC#N)N(C)Cc1ccc(Cl)nc1.CCO.Oc1ccc(C(c2ccc(O)cc2)C(c2ccc(O)cc2)c2ccc(O)cc2)cc1", "note": "[Clathrate compound 3]", "values": [{"measurement": "saturated solubility", "setting": "[1]", "result": 230, "unit": "ppm"}, {"measurement": "Concentration of acetamiprid", "setting": "[1]; 1 hour", "result": 156, "unit": "ppm"}, {"measurement": "Concentration of acetamiprid", "setting": "[1]; 3 hours", "result": 156, "unit": "ppm"}, {"measurement": "Concentration of acetamiprid", "setting": "[1]; 24 hours", "result": 163, "unit": "ppm"}, {"measurement": "Concentration of acetamiprid", "setting": "[1]; 48 hours", "result": 179, "unit": "ppm"}, {"measurement": "Concentration of acetamiprid", "setting": "[1]; 72 hours", "result": 200, "unit": "ppm"}, {"measurement": "Concentration of acetamiprid", "setting": "[1]; 192 hours", "result": 230, "unit": "ppm"}]}, {"smiles": "ClC=CCCl", "note": "[D-D, 1,3-dichloropropene]", "values": [{"measurement": "aqueous solubility", "setting": "[2]; temperature not given", "result": 2000, "unit": "ppm"}]}, {"smiles": "COP(=O)(NC(C)=O)SC", "note": "(centres unmarked) [acephate, O,S-dimethyl-N-acetylphosphoroamide thioate]", "values": [{"measurement": "aqueous solubility", "setting": "[2]; temperature not given", "result": "about 650000 ppm"}]}, {"smiles": "CNC(=O)Oc1cccc2c1OC(C)(C)O2", "note": "[bendiocarb, 2,2-dimethyl-1,3-benzodioxol-4-yl-methylcarbamate.hydrochloride]", "values": [{"measurement": "aqueous solubility", "setting": "[2]; 25° C.", "result": 26000, "unit": "ppm"}]}, {"smiles": "CCSCc1ccccc1OC(=O)NC", "note": "[ethiofencarb, 2-ethylthiomethylphenylmethylcarbamate]", "values": [{"measurement": "aqueous solubility", "setting": "[2]; 20° C.", "result": 1800, "unit": "ppm"}]}, {"smiles": "CNC(=O)ON=C(C)SC", "note": "[methomyl, S-methyl-N-(methylcarbamoyloxy)thioacetimidate]", "values": [{"measurement": "aqueous solubility", "setting": "[2]; temperature not given", "result": 58000, "unit": "ppm"}]}, {"smiles": "CCN(Cc1ccc(Cl)nc1)/C(=C/[N+](=O)[O-])NC", "note": "[nitenpyram, (E)-N-(6-chloro-3-pyridylmethyl)-N-ethyl-N′-methyl-2-nitrovinylidenediamine]", "values": [{"measurement": "aqueous solubility", "setting": "[2]; temperature not given", "result": "about 2000 ppm"}]}, {"smiles": "CN1COCN(Cc2cnc(Cl)s2)/C1=N\\[N+](=O)[O-]", "note": "[thiamethoxam]", "values": [{"measurement": "aqueous solubility", "setting": "[2]; 25° C.", "result": 4100, "unit": "ppm"}]}]}
